From ChEMBL document CHEMBL1201862, “PubChem BioAssay data set” (2004)
Activity calls are given as the source filed them.

What was measured:
BJ = assay: cytotoxicity toward BJ-TERT fibroblasts, dose response, cell-based, RAS-independent, luminescence (AID 1933); assay type: functional; conditions: Homo sapiens
SRSF protein kinase 1 = SRSF protein kinase 1 (Homo sapiens, UniProt Q96SB4); assay type: functional;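 further: measured as one member of a kinome-wide kinase profiling panel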
[1] = target: 3-phosphoinositide-dependent protein kinase 1 (Homo sapiens, UniProt O15530); assay type: functional;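 further: value comes from the Navigating the Kinome panel, PDPK1 member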
[2] = target: Proto-oncogene tyrosine-protein kinase receptor Ret (Homo sapiens, UniProt P07949); assay type: functional;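 further: measured within a kinome-wide profiling panel, RET as the panel member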
[3] = target: MAP kinase-activated protein kinase 3 (Homo sapiens, UniProt Q16644); assay type: functional;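 further: value comes from a kinome-wide profiling panel in which MAPKAPK3 is one of the panel members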
[4] = target: cGMP-dependent protein kinase 1 (Homo sapiens, UniProt Q13976); assay type: functional;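 further: value from a kinome panel screen with PRKG1 as the panel member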
[5] = target: Casein kinase I isoform gamma-1 (Homo sapiens, UniProt Q9HCP0); assay type: functional;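 further: measured as the CSNK1G1 member of a kinome profiling panel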
[6] = target: Serine/threonine-protein kinase D3 (Homo sapiens, UniProt O94806); assay type: functional;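 further: determined within a kinase panel screen, with PRKCN as the panel member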
[7] = target: Mitogen-activated protein kinase 9 (Homo sapiens, UniProt P45984); assay type: functional;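 further: value from a kinome panel profiling assay, MAPK9 panel entry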
[8] = target: Tyrosine-protein kinase FRK (Homo sapiens, UniProt P42685); assay type: functional;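 further: FRK tested as one member of a kinome panel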
[9] = target: Serine/threonine-protein kinase 3 (Homo sapiens, UniProt Q13188); assay type: functional;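 further: measured as one member of a kinome-wide kinase panel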
[10] = target: Serine/threonine-protein kinase pim-1 (Homo sapiens, UniProt P11309); assay type: functional
[11] = target: Macrophage colony-stimulating factor 1 receptor (Homo sapiens, UniProt P07333); assay type: functional;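 further: value comes from the Navigating the Kinome screening panel, CSF1R member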
[12] = target: Non-receptor tyrosine-protein kinase TYK2 (Homo sapiens, UniProt P29597); assay type: functional
[13] = target: Epidermal growth factor receptor (Homo sapiens, UniProt P00533)
[14] = target: MAP kinase-activated protein kinase 5 (Homo sapiens, UniProt Q8IW41); assay type: functional;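 further: measured as one member of a kinome panel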
[15] = target: Tyrosine-protein kinase Srms (Homo sapiens, UniProt Q9H3Y6); assay type: functional;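 further: SRMS measured as one member of a kinome-wide kinase profiling panel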
[16] = target: Mitogen-activated protein kinase kinase kinase 20 (Homo sapiens, UniProt Q9NYL2); assay type: functional
[17] = target: Hepatocyte growth factor receptor (Homo sapiens, UniProt P08581); assay type: functional;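 further: kinase panel profiling across the kinome, with MET as the panel member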
[18] = target: Proto-oncogene tyrosine-protein kinase Src (Homo sapiens, UniProt P12931); assay type: functional;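 further: SRC entry within a kinome-wide kinase profiling panel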
Chain of Proto-oncogene tyrosine-protein kinase Src (P12931 2-536 limits assumed): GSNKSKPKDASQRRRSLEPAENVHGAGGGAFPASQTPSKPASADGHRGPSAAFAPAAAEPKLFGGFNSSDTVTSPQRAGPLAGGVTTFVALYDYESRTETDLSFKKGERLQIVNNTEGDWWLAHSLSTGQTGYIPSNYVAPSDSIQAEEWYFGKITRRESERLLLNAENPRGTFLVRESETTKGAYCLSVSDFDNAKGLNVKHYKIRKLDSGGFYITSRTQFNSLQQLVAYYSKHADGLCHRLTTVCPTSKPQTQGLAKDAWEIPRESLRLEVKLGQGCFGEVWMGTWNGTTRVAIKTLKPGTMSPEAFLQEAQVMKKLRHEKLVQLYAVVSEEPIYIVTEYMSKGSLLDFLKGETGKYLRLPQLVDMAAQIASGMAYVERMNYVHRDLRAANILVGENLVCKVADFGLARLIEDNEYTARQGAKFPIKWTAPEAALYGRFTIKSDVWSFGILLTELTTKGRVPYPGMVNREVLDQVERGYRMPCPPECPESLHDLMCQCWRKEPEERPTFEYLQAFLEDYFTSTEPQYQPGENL

Chain of Proto-oncogene tyrosine-protein kinase receptor Ret (P07949 whole entry): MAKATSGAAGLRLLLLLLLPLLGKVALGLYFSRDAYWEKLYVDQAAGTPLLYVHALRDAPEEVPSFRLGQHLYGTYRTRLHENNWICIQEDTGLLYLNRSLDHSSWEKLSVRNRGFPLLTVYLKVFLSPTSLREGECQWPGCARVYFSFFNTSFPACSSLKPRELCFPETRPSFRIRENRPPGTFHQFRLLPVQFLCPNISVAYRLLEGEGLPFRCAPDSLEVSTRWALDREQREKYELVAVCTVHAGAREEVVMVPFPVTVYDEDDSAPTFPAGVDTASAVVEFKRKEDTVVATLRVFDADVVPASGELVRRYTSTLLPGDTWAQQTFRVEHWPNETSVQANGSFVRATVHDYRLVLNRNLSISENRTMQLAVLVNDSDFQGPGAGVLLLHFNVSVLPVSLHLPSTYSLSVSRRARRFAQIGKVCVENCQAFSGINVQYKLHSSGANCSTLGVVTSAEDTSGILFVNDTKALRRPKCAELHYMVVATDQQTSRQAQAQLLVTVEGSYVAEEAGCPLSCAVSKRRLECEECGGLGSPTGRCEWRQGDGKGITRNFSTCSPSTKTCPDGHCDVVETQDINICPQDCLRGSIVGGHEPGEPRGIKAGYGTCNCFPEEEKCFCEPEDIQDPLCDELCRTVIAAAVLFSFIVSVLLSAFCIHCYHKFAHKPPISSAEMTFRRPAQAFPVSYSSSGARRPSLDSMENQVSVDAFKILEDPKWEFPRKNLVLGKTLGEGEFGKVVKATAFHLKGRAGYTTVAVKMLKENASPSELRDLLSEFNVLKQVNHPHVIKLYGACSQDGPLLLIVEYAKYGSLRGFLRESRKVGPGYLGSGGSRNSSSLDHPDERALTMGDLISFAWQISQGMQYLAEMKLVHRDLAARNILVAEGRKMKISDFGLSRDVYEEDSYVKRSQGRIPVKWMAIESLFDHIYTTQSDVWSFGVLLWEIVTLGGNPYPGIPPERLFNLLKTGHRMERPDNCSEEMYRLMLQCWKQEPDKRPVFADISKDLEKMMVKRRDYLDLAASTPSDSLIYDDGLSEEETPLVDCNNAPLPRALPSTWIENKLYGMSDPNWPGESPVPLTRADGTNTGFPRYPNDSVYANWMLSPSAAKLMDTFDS
Chain of Mitogen-activated protein kinase 9 (P45984 whole entry): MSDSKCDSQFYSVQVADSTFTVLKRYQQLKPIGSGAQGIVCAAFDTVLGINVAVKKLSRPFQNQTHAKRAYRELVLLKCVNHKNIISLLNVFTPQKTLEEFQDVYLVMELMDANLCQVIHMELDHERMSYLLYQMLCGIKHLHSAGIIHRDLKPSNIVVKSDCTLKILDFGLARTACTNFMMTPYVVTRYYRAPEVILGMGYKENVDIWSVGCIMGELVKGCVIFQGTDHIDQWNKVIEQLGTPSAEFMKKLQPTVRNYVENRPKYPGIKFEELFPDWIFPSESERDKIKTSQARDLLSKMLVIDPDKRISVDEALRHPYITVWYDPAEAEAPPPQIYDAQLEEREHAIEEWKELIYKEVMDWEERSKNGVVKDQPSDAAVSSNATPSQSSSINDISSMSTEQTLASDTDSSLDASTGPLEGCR
Chain of Tyrosine-protein kinase Srms (Q9H3Y6 whole entry): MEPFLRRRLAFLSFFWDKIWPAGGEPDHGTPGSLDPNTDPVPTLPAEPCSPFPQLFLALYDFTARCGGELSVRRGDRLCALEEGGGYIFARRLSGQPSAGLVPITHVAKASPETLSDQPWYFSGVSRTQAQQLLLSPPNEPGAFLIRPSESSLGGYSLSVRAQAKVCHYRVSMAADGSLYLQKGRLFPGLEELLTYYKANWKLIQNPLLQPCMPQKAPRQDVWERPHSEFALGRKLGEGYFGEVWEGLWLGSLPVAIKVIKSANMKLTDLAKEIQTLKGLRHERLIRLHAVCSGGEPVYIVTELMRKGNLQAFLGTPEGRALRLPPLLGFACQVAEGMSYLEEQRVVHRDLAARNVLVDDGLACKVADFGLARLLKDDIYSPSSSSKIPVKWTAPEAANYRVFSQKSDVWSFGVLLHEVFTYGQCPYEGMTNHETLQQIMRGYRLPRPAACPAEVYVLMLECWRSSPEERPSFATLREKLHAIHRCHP
Chain of Non-receptor tyrosine-protein kinase TYK2 (P29597 whole entry): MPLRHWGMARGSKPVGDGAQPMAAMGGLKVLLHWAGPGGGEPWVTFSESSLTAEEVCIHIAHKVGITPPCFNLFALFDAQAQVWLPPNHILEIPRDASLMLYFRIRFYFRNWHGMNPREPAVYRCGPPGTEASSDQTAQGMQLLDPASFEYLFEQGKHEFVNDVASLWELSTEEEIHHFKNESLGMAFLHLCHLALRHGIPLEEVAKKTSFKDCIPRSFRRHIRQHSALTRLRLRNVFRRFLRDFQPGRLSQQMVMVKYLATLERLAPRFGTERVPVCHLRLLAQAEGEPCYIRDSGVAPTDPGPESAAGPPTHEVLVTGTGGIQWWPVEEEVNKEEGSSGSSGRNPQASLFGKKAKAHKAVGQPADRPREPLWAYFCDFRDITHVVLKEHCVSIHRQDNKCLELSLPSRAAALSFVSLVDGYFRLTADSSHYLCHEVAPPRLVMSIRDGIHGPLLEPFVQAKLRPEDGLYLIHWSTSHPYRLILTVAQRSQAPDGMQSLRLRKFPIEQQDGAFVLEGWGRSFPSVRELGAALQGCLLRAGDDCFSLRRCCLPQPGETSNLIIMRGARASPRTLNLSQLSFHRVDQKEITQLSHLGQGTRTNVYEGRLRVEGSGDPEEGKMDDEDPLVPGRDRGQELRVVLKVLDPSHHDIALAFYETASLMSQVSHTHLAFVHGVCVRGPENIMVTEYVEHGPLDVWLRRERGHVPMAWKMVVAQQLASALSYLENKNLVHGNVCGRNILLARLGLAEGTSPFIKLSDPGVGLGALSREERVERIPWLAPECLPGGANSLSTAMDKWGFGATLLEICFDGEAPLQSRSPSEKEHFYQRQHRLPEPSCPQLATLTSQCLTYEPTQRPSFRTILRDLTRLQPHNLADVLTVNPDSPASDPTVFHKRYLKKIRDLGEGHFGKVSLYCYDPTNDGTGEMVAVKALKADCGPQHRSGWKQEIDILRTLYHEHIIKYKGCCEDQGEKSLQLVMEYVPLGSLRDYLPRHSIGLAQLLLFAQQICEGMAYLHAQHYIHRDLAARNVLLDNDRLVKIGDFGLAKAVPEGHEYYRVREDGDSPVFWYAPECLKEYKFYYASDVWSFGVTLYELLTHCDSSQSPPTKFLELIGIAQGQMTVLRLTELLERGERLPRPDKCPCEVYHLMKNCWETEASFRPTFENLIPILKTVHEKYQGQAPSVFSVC
Chain of Epidermal growth factor receptor (P00533 whole entry): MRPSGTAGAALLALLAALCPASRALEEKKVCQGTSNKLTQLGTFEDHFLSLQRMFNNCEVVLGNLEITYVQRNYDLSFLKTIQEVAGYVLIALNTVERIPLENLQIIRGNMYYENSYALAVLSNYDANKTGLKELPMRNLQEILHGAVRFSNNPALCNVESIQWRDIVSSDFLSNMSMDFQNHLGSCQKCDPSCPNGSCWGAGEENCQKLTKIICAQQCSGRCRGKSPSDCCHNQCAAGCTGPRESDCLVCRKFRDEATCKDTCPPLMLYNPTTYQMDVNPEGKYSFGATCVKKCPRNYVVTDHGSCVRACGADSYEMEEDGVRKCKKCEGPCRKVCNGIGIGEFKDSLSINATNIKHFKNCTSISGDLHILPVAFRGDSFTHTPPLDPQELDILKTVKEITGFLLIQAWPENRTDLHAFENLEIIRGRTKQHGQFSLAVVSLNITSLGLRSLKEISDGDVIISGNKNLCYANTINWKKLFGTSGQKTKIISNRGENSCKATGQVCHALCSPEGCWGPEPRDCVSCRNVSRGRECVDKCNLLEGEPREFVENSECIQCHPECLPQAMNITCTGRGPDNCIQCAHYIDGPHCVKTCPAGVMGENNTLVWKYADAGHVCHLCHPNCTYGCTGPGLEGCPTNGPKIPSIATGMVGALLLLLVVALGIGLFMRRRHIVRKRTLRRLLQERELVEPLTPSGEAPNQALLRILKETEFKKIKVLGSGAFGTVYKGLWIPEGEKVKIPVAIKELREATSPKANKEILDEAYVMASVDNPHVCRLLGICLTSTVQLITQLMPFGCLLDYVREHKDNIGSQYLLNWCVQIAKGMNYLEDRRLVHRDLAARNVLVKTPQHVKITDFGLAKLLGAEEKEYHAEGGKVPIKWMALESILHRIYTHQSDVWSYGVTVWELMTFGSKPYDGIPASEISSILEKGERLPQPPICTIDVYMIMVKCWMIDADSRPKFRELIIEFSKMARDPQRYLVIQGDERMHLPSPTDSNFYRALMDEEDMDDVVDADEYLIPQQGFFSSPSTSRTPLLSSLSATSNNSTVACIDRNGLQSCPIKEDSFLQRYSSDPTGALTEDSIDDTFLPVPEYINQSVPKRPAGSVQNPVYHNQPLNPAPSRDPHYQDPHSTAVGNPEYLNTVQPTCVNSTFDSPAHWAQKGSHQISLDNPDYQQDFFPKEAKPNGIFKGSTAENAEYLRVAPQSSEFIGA

## COc1ccc(-c2nnc(NC(=O)c3ccc(F)cc3)o2)cc1
BJ
  EC50: 61700 nM (active)

## CCn1c(-c2nonc2N)nc2cnc(Oc3cccc(NC(=O)c4ccc(OCCN5CCOCC5)cc4)c3)cc21 [GSK-269962A]
SRSF protein kinase 1
  Ki: 7940 nM (active)
[1]
  Ki: > 3980 nM (inactive)
[2]
  Ki: > 1260 nM (inactive)
[3]
  Ki: > 10000 nM (inactive)
[4]
  Ki: 158 nM (active)
[5]
  Ki: > 6310 nM (inactive)
[6]
  Ki: 2510 nM (active)
[7]
  Ki: > 3980 nM (inactive)
[8]
  Ki: > 2510 nM (inactive)
[9]
  Ki: > 7940 nM (inactive)
[10]
  Ki: 316 nM (active)
[11]
  Ki: > 2510 nM (inactive)
[12]
  Ki: > 2000 nM (inactive)
[13]
  Ki: > 2000 nM (inactive)
[14]
  Ki: > 1580 nM (inactive)
[15]
  Ki: > 1580 nM (inactive)
[16]
  Ki: > 7940 nM (inactive)
[17]
  Ki: > 3160 nM (inactive)
[18]
  Ki: > 2000 nM (inactive)
